Measurements from ChEMBL document CHEMBL3045943, “Novel N-aryl(alkaryl)-2-[(3-R-2-oxo-2H-[1,2,4]triazino[2,3-c]quinazoline-6-yl)thio]acetamides: synthesis, cytotoxicity, anticancer activity, COMPARE analysis and docking” (2013).

How the values were obtained:
Assay type in all cases: functional
MDA-MB-435 = assay: Cytotoxicity against Homo sapiens (human) MDA-MB-435 cells assessed as cell growth at 10 uM after 48 hr by SRB assay relative to control; details: MDA-MB-435, 48 h, read-out: Activity
[1] = test system: Photobacterium leiognathi; assay: Growth inhibition of Photobacterium leiognathi Sh1 assessed as bio-luminescence at 0.1 mg/ml after 16 to 18 hr by chronic action test relative to control; parameters: scale not given: the % may be the effect or the level left
[2] = test system: Photobacterium leiognathi; assay: Growth inhibition of Photobacterium leiognathi Sh1 assessed as bio-luminescence at 0.025 mg/ml after 16 to 18 hr by chronic action test relative to control; parameters: scale not given: the % may be the effect or the level left
[3] = test system: Photobacterium leiognathi; assay: Growth inhibition of Photobacterium leiognathi Sh1 assessed as bio-luminescence at 0.25 mg/ml after 10 min by acute action test relative to control; parameters: scale not given: the % may be the effect or the level left
[4] = test system: Photobacterium leiognathi; assay: Growth inhibition of Photobacterium leiognathi Sh1 assessed as bio-luminescence at 0.1 mg/ml after 10 min by acute action test relative to control; parameters: scale not given: the % may be the effect or the level left
[5] = test system: Photobacterium leiognathi; assay: Growth inhibition of Photobacterium leiognathi Sh1 assessed as bio-luminescence at 0.025 mg/ml after 10 min by acute action test relative to control; parameters: scale not given: the % may be the effect or the level left
NCI-H522 = assay: Cytotoxicity against Homo sapiens (human) NCI-H522 cells assessed as cell growth at 10 uM after 48 hr by SRB assay relative to control; details: NCI-H522, 48 h, read-out: Activity
[6] = test system: Photobacterium leiognathi; assay: Growth inhibition of Photobacterium leiognathi Sh1 assessed as bio-luminescence at 0.25 mg/ml after 16 to 18 hr by chronic action test relative to control; parameters: scale not given: the % may be the effect or the level left
LOX IMVI = assay: Cytotoxicity against Homo sapiens (human) LOXIMVI cells assessed as cell growth at 10 uM after 48 hr by SRB assay relative to control; details: read-out: Activity
OVCAR-3 = assay: Cytotoxicity against Homo sapiens (human) OVCAR3 cells assessed as cell growth at 10 uM after 48 hr by SRB assay relative to control; details: OVCAR-3, 48 h, read-out: Activity
HCT-116 = assay: Cytotoxicity against Homo sapiens (human) HCT116 cells assessed as cell growth at 10 uM after 48 hr by SRB assay relative to control; details: HCT-116, 48 h, read-out: Activity
SF-539 = assay: Cytotoxicity against Homo sapiens (human) SF539 cells assessed as cell growth at 10 uM after 48 hr by SRB assay relative to control; details: SF-539, 48 h, read-out: Activity
HOP-92 = assay: Cytotoxicity against Homo sapiens (human) HOP92 cells assessed as cell growth at 10 uM after 48 hr by SRB assay relative to control; details: HOP-92, 48 h, read-out: Activity
SR = assay: Cytotoxicity against Homo sapiens (human) SR cells assessed as cell growth at 10 uM after 48 hr by SRB assay relative to control; details: read-out: Activity
MOLT-4 = assay: Cytotoxicity against Homo sapiens (human) MOLT4 cells assessed as cell growth at 10 uM after 48 hr by SRB assay relative to control; details: MOLT-4, 48 h, read-out: Activity
K562 = assay: Cytotoxicity against Homo sapiens (human) K562 cells assessed as cell growth at 10 uM after 48 hr by SRB assay relative to control; details: K562, 48 h, read-out: Activity
HL-60(TB) = assay: Cytotoxicity against Homo sapiens (human) HL-60(TB) cells assessed as cell growth at 10 uM after 48 hr by SRB assay relative to control; details: HL-60, 48 h, read-out: Activity
[7] = Cytotoxicity against Homo sapiens (human) […] cells assessed as cell growth at 10 uM after 48 hr by SRB assay relative to control; details: read-out: Activity
CCRF-CEM = assay: Cytotoxicity against Homo sapiens (human) CCRF-CEM cells assessed as cell growth at 10 uM after 48 hr by SRB assay relative to control; details: read-out: Activity
U-251 = assay: Cytotoxicity against Homo sapiens (human) U251 cells assessed as cell growth at 10 uM after 48 hr by SRB assay relative to control; details: U-251, 48 h, read-out: Activity
SNB-75 = assay: Cytotoxicity against Homo sapiens (human) SNB75 cells assessed as cell growth at 10 uM after 48 hr by SRB assay relative to control; details: SNB-75, 48 h, read-out: Activity

SMILES	Activity [1]	Activity [2]	Activity [3]	Activity [4]	Activity [5]	growth at 10 µM (NCI-H522)	Activity [6]	growth at 10 µM (SF-539)	growth at 10 µM (HOP-92)	growth at 10 µM (SR)	growth at 10 µM [7]	growth at 10 µM (CCRF-CEM)	also measured
Cc1nn2c(SCC(=O)NCc3ccccc3Cl)nc3ccccc3c2nc1=O	180.9%	148.9%	142.9%	110%	91.7%	79.9%	125%	–	–	–	–	–	growth at 10 µM (MDA-MB-435): 79.8%
O=C(CSc1nc2ccccc2c2nc(=O)c(-c3ccccc3)nn12)NCc1ccccc1Cl	133.3%	93%	155%	80%	108.3%	43.2%	110%	9.93%	44.8%	47.4%	–	–	growth at 10 µM (LOX IMVI): 27.9%; growth at 10 µM (OVCAR-3): 47.9%; growth at 10 µM (HCT-116): 7.01%
Cc1ccc(-c2nn3c(SCC(=O)Nc4cccc(C(F)(F)F)c4)nc4ccccc4c3nc2=O)cc1	81.5%	118.2%	83.3%	78.8%	61.1%	–	200%	80.8%	71%	66.5%	–	–	–
Cc1ccc(-c2nn3c(SCC(=O)Nc4ccccc4F)nc4ccccc4c3nc2=O)cc1	87.5%	112.5%	47.83%	86.96%	89.86%	–	100%	–	–	73.7%	94.4%	76.8%	growth at 10 µM (MOLT-4): 82.3%; growth at 10 µM (K562): 77.5%; growth at 10 µM (HL-60(TB)): 84.4%
Cc1ccc(-c2nn3c(SCC(=O)Nc4ccccc4C)nc4ccccc4c3nc2=O)cc1	66.7%	100%	193.5%	109.7%	119.7%	–	93.3%	–	–	–	–	-49.6%	growth at 10 µM (U-251): 63.5%; growth at 10 µM (SNB-75): 46.7%
COc1ccc(-c2nn3c(SCC(=O)Nc4ccccc4C(F)(F)F)nc4ccccc4c3nc2=O)cc1	200%	185.2%	113.4%	106.5%	97.8%	–	102.9%	–	–	–	85.1%	–	–
